# Assay results reported in article PMC5536191 (ACS chemical biology, 2017).
# “Also recorded” adds a separate entry of the source.
# Legend:
# Will-2 cells = assay: H3K27Me3 levels in DLBCL cells; assay type: cell-based
# PAD [1] = assay: PAD inhibition by F-Amidine; assay type: biochemical; conditions: F-Amidine 1 mM, 15 min
# PAD [2] = conditions: ref [46]; cited from earlier work
# PRC2 = conditions: F-Amidine 1 mM
# T47D cells [3] = assay type: cell-based
# PRC2 complex = assay: PRC2 methyltransferase activity on histone H3 after PAD preincubation; assay type: biochemical, human; conditions: PAD preincubation with H3; Figure S1A and B
# ERα = assay: Co-immunoprecipitation of PAD2 and ERα in MCF7 nuclear extracts; assay type: binding; conditions: MCF7 nuclear extracts post E2 stimulation
# UTX and JMJD3 = assay: Co-immunoprecipitation with PAD2 in MCF7 nuclear extracts; assay type: binding; conditions: MCF7 nuclear extracts post E2 stimulation
# MCF7 cells = assay: H3Cit26 and H3K27Me3 levels after estradiol stimulation; assay type: cell-based
# T47D cells [4] = assay: as above; assay type: cell-based
compound,measurement,setting,value
"N=C(CF)NCCC[C@H](NC(=O)c1ccc(-c2ccccc2)cc1)c1nc2ccccc2[nH]1 [BB-F-Amidine, N1-[1,4′-Phenyl]benzoyl-N5-(2-fluoro-1-inimoethyl)-1-(1H-benzo[d]imidazole-2-yl)-L-ornithine amide]",H3K27Me3 increase by PAD inhibitor in EZH2 knockdown cells,Will-2 cells; EZH2 knockdown cells treated with PAD inhibitor,attenuated
same,increase in H3K27Me3 levels,"Will-2 cells; PAD inhibitor treatment, DLBCL line (Will-2)",4 fold
"N=C(CF)NCCC[C@H](NC(=O)c1ccccc1)C(N)=O [F-Amidine, N-α-benzoyl-N5-(2-fluoro-1-iminoethyl)-L-ornithine amide]",inhibition of PAD reaction,PAD [1],completely inhibits the PAD reaction
same,PAD inhibition character,PAD [2],"highly selective, irreversible pan-PAD inhibitor"
same,effect on methyltransferase activity of PRC2,PRC2,no effect on the methyltransferase activity of PRC2
CCOC(=O)CCNc1cc(N2CCc3ccccc3CC2)nc(-c2ccccn2)n1 [GSK-J4],effect on E2-stimulated transcription of ERα-target genes (e.g. GDNF and KRT13),"T47D cells [3]; 400 nM GSK-J4, 5 days, baseline vs 60 min E2",downregulated
CCN(c1cc(-c2ccc(CN3CCOCC3)cc2)cc(C(=O)NCc2c(C)cc(C)[nH]c2=O)c1C)C1CCOCC1 [EPZ-6438],effect on baseline transcription before estradiol stimulation,"T47D cells [3]; 5 μM EPZ-6438, 5 days, absence of estradiol",basal transcriptional level is increased relative to control cells; also recorded: increased baseline transcription prior to E2 stimulation
same,effect on H3K27Me3 increase of PAD2 knockdown cells,Will-2 cells; PAD2 knockdown cells treated with EZH2 inhibitor,attenuated
PAD2: Protein Arginine Deiminase type-2,"effect on PRC2 catalyzed methylation, time and dose dependence",PRC2 complex,decrease PRC2 catalyzed methylation in a time- and dose-dependent manner
same,co-immunoprecipitation of PAD2 and ERα,ERα,PAD2 and ERα co-immunoprecipitate
same,co-immunoprecipitation with UTX and JMJD3,UTX and JMJD3,co-immunoprecipitates UTX and JMJD3
"C[C@]12CC[C@@H]3c4ccc(O)cc4CC[C@H]3[C@@H]1CC[C@@H]2O [E2, 17-β-estradiol]",H3K27Me3 level,"MCF7 cells; 100 nM, 4 h",modest reduction in H3K27Me3 levels
same,H3Cit26 signal,"MCF7 cells; E2 stimulation, after 2 h",lost
same,H3K27Me3 level,"T47D cells [4]; 100 nM, 1 h",modest reduction in H3K27Me3 levels
same,H3Cit26 signal,"T47D cells [4]; E2 stimulation, after 2 h",greatly reduced
PAD4: Protein Arginine Deiminase type-4,"effect on PRC2 catalyzed methylation, time and dose dependence",PRC2 complex,decrease PRC2 catalyzed methylation in a time- and dose-dependent manner
